Assay results from the kinase profiling compilation of Christmann-Franck et al. (2016).

How the values were obtained:
Assay in all cases: KINOMEscan competition binding
Conditions in all cases: compound 0.5 µM
MAP3K11 (human) = MAP3K11 (human) (UniProt Q16584)
PRKAA1 (human) = PRKAA1 (human) (UniProt Q13131)
[1] = system: ABL1 (human), P00519 [Y253F]
FGFR4 (human) = FGFR4 (human) (UniProt P22455)
EPHA4 (human) = EPHA4 (human) (UniProt P54764)
PAK3 (human) = PAK3 (human) (UniProt O75914)
SRPK1 (human) = SRPK1 (human) (UniProt Q96SB4)
CAMK1D (human) = CAMK1D (human) (UniProt Q8IU85)
[2] = system: FLT3 (human), P36888 [D835H]
TBK1 (human) = TBK1 (human) (UniProt Q9UHD2)
INSRR (human) = INSRR (human) (UniProt P14616)
MAP2K3 (human) = MAP2K3 (human) (UniProt P46734)
EPHA6 (human) = EPHA6 (human) (UniProt Q9UF33)
MAP2K7 (human) = MAP2K7 (human) (UniProt O14733)
LYN (human) = LYN (human) (UniProt P07948)
DYRK1B (human) = DYRK1B (human) (UniProt Q9Y463)
OXSR1 (human) = OXSR1 (human) (UniProt O95747)
STK32C (human) = STK32C (human) (UniProt Q86UX6)
PTK6 (human) = PTK6 (human) (UniProt Q13882)
STK32B (human) = STK32B (human) (UniProt Q9NY57)
STK10 (human) = STK10 (human) (UniProt O94804)
[3] = system: ABL1 (human), P00519 [E255K]
PIK3CG (human) = PIK3CG (human) (UniProt P48736)
STK11 (human) = STK11 (human) (UniProt Q15831)
TRPM6 (human) = TRPM6 (human) (UniProt Q9BX84)
PLK1 (human) = PLK1 (human) (UniProt P53350)
RIOK1 (human) = RIOK1 (human) (UniProt Q9BRS2)
PRKCI (human) = PRKCI (human) (UniProt P41743)
PRKCQ (human) = PRKCQ (human) (UniProt Q04759)
PAK2 (human) = PAK2 (human) (UniProt Q13177)
CDK9 (human) = CDK9 (human) (UniProt P50750)
ACVR1 (human) = ACVR1 (human) (UniProt Q04771)
RPS6KA6 KD1 (human) = RPS6KA6 KD1 (human) (UniProt Q9UK32)
NEK11 (human) = NEK11 (human) (UniProt Q8NG66)
STK38 (human) = STK38 (human) (UniProt Q15208)
MAP2K2 (human) = MAP2K2 (human) (UniProt P36507)
PRPF4B (human) = PRPF4B (human) (UniProt Q13523)
MTOR (human) = MTOR (human) (UniProt P42345)
[4] = molecular target: TYK2 JH2 pseudokinase (human) (UniProt P29597)
ROS1 (human) = ROS1 (human) (UniProt P08922)
STK4 (human) = STK4 (human) (UniProt Q13043)
BMX (human) = BMX (human) (UniProt P51813)

Chain of PTK6 (human) (Q13882 whole entry, looked up): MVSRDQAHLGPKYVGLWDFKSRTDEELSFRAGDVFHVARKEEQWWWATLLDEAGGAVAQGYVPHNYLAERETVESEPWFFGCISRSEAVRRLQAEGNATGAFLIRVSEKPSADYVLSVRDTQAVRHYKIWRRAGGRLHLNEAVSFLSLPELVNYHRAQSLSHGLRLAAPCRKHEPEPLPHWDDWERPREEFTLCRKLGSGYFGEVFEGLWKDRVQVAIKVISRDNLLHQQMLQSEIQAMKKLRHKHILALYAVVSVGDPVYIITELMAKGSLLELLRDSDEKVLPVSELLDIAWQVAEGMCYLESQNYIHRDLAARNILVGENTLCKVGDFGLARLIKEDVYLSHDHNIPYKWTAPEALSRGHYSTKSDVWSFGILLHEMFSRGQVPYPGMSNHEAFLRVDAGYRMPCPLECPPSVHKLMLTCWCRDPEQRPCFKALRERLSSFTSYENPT
Chain of OXSR1 (human) (O95747 whole entry, looked up): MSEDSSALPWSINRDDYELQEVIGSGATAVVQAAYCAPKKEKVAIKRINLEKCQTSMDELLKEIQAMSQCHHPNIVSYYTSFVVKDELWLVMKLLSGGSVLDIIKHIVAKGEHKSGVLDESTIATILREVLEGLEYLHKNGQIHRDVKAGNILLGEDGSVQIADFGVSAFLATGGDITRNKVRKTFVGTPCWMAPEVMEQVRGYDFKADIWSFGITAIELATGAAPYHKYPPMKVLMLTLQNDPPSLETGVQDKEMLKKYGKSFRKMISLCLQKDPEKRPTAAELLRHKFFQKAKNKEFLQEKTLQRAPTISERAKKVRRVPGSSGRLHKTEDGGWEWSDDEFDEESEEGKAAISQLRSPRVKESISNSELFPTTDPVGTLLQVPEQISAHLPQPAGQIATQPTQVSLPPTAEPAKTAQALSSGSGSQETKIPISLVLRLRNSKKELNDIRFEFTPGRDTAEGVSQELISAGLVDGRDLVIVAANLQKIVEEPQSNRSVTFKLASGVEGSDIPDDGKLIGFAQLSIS
Chain of PAK2 (human) (Q13177 whole entry, looked up): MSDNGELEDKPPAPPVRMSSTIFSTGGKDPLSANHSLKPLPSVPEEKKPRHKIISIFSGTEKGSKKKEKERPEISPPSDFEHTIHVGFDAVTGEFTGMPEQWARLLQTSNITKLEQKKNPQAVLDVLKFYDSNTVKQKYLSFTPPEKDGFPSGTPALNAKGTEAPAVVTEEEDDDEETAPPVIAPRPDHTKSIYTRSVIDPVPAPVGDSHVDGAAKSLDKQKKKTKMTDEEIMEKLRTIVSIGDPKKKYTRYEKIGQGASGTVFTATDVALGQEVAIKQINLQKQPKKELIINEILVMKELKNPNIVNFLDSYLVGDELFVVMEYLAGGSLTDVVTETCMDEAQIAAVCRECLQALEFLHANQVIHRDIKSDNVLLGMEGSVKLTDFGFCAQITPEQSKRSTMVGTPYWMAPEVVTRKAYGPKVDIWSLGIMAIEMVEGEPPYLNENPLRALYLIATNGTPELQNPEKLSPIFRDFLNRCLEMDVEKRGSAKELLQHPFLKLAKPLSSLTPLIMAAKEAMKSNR
Chain of SRPK1 (human) (Q96SB4 whole entry, looked up): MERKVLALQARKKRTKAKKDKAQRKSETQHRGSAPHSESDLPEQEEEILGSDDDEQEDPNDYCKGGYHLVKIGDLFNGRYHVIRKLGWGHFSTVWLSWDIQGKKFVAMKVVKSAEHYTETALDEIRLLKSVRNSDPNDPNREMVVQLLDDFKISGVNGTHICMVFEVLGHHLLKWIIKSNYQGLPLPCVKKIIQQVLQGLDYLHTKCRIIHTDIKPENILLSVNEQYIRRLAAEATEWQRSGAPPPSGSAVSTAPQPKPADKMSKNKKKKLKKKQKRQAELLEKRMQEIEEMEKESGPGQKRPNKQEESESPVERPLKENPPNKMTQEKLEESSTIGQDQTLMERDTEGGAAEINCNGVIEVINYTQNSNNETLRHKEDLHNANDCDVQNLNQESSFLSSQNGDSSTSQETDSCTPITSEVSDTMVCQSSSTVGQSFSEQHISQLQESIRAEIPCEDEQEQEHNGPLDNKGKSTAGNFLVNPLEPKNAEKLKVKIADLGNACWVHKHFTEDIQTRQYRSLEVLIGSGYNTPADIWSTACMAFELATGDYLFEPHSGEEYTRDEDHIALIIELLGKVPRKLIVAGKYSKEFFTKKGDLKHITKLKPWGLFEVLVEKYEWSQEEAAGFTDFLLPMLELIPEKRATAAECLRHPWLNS
Chain of EPHA4 (human) (P54764 whole entry, looked up): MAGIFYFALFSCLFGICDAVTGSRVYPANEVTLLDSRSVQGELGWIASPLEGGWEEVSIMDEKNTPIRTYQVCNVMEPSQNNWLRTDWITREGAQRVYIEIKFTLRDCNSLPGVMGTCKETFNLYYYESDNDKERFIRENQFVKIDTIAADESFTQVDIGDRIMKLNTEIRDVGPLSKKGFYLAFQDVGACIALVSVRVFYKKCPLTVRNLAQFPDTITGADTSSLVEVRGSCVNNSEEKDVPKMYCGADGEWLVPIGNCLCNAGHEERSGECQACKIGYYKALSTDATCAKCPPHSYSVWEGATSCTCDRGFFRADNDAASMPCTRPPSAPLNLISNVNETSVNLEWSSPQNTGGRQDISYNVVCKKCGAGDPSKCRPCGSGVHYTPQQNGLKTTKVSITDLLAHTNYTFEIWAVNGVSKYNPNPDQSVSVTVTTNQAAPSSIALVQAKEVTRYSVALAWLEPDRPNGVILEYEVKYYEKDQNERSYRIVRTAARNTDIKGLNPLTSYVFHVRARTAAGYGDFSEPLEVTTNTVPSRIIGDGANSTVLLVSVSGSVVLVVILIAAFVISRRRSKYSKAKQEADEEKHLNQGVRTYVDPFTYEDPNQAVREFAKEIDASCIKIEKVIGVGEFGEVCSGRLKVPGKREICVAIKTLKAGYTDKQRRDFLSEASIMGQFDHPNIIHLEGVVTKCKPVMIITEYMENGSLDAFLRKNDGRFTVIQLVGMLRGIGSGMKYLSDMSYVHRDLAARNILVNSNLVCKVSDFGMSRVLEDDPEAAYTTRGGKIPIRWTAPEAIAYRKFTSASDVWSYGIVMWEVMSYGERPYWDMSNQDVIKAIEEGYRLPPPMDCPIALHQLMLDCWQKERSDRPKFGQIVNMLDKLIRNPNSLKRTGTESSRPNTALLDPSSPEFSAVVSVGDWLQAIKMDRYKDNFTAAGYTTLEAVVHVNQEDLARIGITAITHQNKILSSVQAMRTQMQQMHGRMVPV
Chain of STK11 (human) (Q15831 whole entry, looked up): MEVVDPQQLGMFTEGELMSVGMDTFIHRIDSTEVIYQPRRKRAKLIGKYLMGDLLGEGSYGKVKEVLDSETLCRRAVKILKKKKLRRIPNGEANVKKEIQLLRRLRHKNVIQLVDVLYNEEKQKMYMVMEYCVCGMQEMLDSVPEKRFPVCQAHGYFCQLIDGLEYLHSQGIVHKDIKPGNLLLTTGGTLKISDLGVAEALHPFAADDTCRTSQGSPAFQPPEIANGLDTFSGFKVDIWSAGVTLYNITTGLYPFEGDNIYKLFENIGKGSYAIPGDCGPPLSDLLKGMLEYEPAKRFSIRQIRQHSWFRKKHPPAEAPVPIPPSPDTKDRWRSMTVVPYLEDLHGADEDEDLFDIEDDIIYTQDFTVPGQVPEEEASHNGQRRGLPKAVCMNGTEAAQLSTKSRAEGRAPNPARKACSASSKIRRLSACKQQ
Chain of STK4 (human) (Q13043 whole entry, looked up): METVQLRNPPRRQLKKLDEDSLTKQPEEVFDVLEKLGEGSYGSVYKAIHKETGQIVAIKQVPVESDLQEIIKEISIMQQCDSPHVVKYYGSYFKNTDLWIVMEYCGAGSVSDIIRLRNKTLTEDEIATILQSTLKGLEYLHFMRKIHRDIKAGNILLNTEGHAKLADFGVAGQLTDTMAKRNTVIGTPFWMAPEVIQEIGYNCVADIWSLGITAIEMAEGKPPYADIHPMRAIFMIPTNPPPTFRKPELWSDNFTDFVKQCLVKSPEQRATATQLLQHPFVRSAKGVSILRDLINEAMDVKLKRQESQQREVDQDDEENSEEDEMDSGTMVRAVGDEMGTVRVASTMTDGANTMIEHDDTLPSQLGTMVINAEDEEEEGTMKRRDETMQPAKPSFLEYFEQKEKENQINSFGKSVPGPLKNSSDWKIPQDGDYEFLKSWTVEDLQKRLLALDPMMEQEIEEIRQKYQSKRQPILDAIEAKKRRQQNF
Chain of FGFR4 (human) (P22455 whole entry, looked up): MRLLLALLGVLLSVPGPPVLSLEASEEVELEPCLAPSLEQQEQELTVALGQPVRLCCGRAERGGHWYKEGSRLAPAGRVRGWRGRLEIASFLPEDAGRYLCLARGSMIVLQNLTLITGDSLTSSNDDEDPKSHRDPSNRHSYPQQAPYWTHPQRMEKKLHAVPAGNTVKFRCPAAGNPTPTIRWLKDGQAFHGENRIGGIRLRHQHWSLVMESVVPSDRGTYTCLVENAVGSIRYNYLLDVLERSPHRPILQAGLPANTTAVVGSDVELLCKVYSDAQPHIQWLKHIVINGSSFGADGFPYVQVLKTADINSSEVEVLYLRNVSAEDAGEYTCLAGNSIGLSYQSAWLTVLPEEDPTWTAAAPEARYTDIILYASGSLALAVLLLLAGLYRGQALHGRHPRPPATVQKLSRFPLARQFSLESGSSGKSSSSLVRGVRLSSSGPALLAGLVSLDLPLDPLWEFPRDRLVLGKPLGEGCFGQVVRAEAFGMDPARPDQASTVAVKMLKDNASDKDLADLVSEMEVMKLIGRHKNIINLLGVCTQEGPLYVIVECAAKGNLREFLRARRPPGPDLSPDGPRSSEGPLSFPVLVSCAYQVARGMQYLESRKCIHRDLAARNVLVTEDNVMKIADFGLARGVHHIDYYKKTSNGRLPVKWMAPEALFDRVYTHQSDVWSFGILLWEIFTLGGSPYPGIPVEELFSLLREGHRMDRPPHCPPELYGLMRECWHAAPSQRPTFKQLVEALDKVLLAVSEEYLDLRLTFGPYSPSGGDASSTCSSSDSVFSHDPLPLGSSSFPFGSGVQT

Question: How did the kinase still bound, per cent of control (MAP3K11 (human)) turn out when Cn1c2ccccc2c2c3c(c4c5ccccc5n(CCC#N)c4c21)CNC3=O was run?
Answer: 17%

Question: And the kinase still bound, per cent of control (PRKAA1 (human))?
Answer: 59%

Question: What about the kinase still bound, per cent of control [1] of the same compound?
Answer: 100%

Question: What about the kinase still bound, per cent of control (FGFR4 (human)) of the same compound?
Answer: 100%

Question: And the kinase still bound, per cent of control (EPHA4 (human))?
Answer: 97%

Question: What about the kinase still bound, per cent of control (PAK3 (human)) of the same compound?
Answer: 70%

Question: What about the kinase still bound, per cent of control (SRPK1 (human)) of the same compound?
Answer: 5.6%

Question: What about the kinase still bound, per cent of control (CAMK1D (human)) of the same compound?
Answer: 93%

Question: What about the kinase still bound, per cent of control [2] of the same compound?
Answer: 2.6%

Question: And the kinase still bound, per cent of control (TBK1 (human))?
Answer: 92%

Question: What about the kinase still bound, per cent of control (INSRR (human)) of the same compound?
Answer: 100%

Question: And the kinase still bound, per cent of control (MAP2K3 (human))?
Answer: 5%

Question: And the kinase still bound, per cent of control (EPHA6 (human))?
Answer: 86%

Question: And the kinase still bound, per cent of control (MAP2K7 (human))?
Answer: 79%

Question: And the kinase still bound, per cent of control (LYN (human))?
Answer: 100%

Question: And the kinase still bound, per cent of control (DYRK1B (human))?
Answer: 12%

Question: And the kinase still bound, per cent of control (OXSR1 (human))?
Answer: 100%

Question: And the kinase still bound, per cent of control (STK32C (human))?
Answer: 100%

Question: And the kinase still bound, per cent of control (PTK6 (human))?
Answer: 77%

Question: What about the kinase still bound, per cent of control (STK32B (human)) of the same compound?
Answer: 100%

Question: What about the kinase still bound, per cent of control (STK10 (human)) of the same compound?
Answer: 28%

Question: What about the kinase still bound, per cent of control [3] of the same compound?
Answer: 75%

Question: What about the kinase still bound, per cent of control (PIK3CG (human)) of the same compound?
Answer: 3.1%

Question: What about the kinase still bound, per cent of control (STK11 (human)) of the same compound?
Answer: 4.4%

Question: And the kinase still bound, per cent of control (TRPM6 (human))?
Answer: 81%

Question: What about the kinase still bound, per cent of control (PLK1 (human)) of the same compound?
Answer: 100%

Question: What about the kinase still bound, per cent of control (RIOK1 (human)) of the same compound?
Answer: 0.6%

Question: What about the kinase still bound, per cent of control (PRKCI (human)) of the same compound?
Answer: 86%

Question: What about the kinase still bound, per cent of control (PRKCQ (human)) of the same compound?
Answer: 59%

Question: What about the kinase still bound, per cent of control (PAK2 (human)) of the same compound?
Answer: 51%

Question: And the kinase still bound, per cent of control (CDK9 (human))?
Answer: 100%

Question: What about the kinase still bound, per cent of control (ACVR1 (human)) of the same compound?
Answer: 21%

Question: And the kinase still bound, per cent of control (RPS6KA6 KD1 (human))?
Answer: 4.7%

Question: And the kinase still bound, per cent of control (NEK11 (human))?
Answer: 100%

Question: And the kinase still bound, per cent of control (STK38 (human))?
Answer: 100%

Question: What about the kinase still bound, per cent of control (MAP2K2 (human)) of the same compound?
Answer: 61%

Question: What about the kinase still bound, per cent of control (PRPF4B (human)) of the same compound?
Answer: 12%

Question: What about the kinase still bound, per cent of control (MTOR (human)) of the same compound?
Answer: 52%

Question: What about the kinase still bound, per cent of control [4] of the same compound?
Answer: 84%

Question: And the kinase still bound, per cent of control (ROS1 (human))?
Answer: 1.8%

Question: And the kinase still bound, per cent of control (STK4 (human))?
Answer: 5.4%

Question: What about the kinase still bound, per cent of control (BMX (human)) of the same compound?
Answer: 66%
